Data as given in patent publication EP3153515A1, “COMPOUNDS FOR INHIBITING HEPATITIS C VIRUS, PHARMACEUTICAL COMPOSITIONS AND USES THEREOF” (priority 2014, dated 2015).

System: HCV NS5A replicon GT-1a
Assay: HCV NS5A replicon anti-viral activity (EC50), dual-reporter Renilla luciferase, GT-1a
Assay type: cell-based
Settings: Hepatitis C virus, GT1A; GT-1a replicon; read-out: NS5A Inhibitory Activity (EC50 of GT-1a subtype inhibition)
Text: The autonomous replication level of HCV in liver cells in vitro is very low, and the only animal that can be infected by HCV is chimpanzee, therefore there is no appropriate animal model currently available for preclinical pharmacodynamic study. Some researchers have transplanted human liver tissue infected with HCV in vitro into immune deficient mice to establish an in vivo mice model, but these mice are hard to raise and the model is unstable and short of normal immunologic reaction. Moreover, the model has significant difference with the pathogenic process of hepatitis C, therefore, it has not been used for animal model to assess the action of anti-HCV medicine yet. The progress of the development of anti-viral drugs for the treatment of HCV infection had been very slow because the pathogenic mechanism and life cycle of HCV were unclear before 1999 due to the lack of cell culture system for effective multiplication of HCV. But researchers managed to achieve a breakthrough in 1999 after numerous attempts. An effective cell culture model-replicon system in which HCV is capable of autonomous replication in transfected human hepatic carcinoma cell line Huh-7 had been established in that year on the basis of subgenomic HCV RNA built with genetic engineering.
The above-mentioned cell culture model-replicon system which has been widely accepted in the industry is used in this invention for ex vivo experiments and subsequent assessment of drugs based on the experiment results.
The therapeutic effect of the compounds of this invention on HCV infection can be preliminarily assessed through the following preclinical in vitro inhibitory action test and can be further confirmed in clinical trials. Other methods used in the invention are also quite familiar to professionals in this field with ordinary technical knowledge. Method for testing the anti-viral activity(EC50) in HCV NS5A replicon system: • The viral replication level in infected cells was determined by testing Renilla luciferase with the newly established dual-reporter gene replicon system. There was a good linear relation between the expression level of the reporter gene and the HCV RNA replication level and viral protein expression level. The anti-viral activity was determined for 3 replicates in 3 replicate cells at five(5) 1:2 diluted concentration gradients, with 1 to 2 positive controls. The EC50 of the compounds was calculated in the end.
The compounds of the invention, or their stereoisomers, tautomers, esterified or amidated prodrugs, or pharmaceutically acceptable salts and mixtures have been subjected to test to determined their therapeutic effects in the treatment of HCV infection. […] Moreover, the results of 6a-6ep(Ia), 6fa-6gq(Ib) and reference compounds Ref-1(BMS-790052), Ref-2(GS5885), Ref-3 in HCV-NS5 inhibition test reveal that the cyclopentanyl/hexamethyleneamino radical containing linear polypeptide compounds 6a-6ep, 6fa-6gq and reference compounds Ref-1, Ref-2, Ref-3 have good HCV inhibitory results. […] The replicons GT-1a, GT-lb, GT-2a, GT-3a, GT-4a, GT-5a and GT-6a used for the test are routine replicons commercially available in this field. Table 1: HCV NS5A replicon inhibitory activity test results of compounds (6a-6gq) of the invention

SMILES | EC50 [nM]
COC(=O)N[C@H](C(=O)N1CC=C[C@H]1c1ncc(-c2ccc(-c3ccc(-c4cnc([C@@H]5CN(S(=O)(=O)C(C)C)CN5C(=O)[C@@H](NC(=O)OC)C(C)C)[nH]4)cc3)cc2)[nH]1)C(C)C [6dd] | 0.001 to 0.999
COC(=O)N[C@H](C(=O)N1CC=C[C@H]1c1ncc(-c2ccc(-c3ccc(-c4cnc([C@@H]5CCCN5C(=O)[C@@H](NC(=O)N(C)C)C(C)C)[nH]4)cc3)cc2)[nH]1)C(C)C [6df] | 0.001 to 0.999
CNC(=O)N[C@@H](C(=O)N1CCC[C@H]1c1ncc(-c2ccc(-c3ccc(-c4cnc([C@@H]5C=CCN5C(=O)[C@@H](NC(=O)OC)C(C)C)[nH]4)cc3)cc2)[nH]1)c1ccccc1 [6dg] | 0.001 to 0.999
COC(=O)N[C@H](C(=O)N1CCC[C@H]1c1ncc(-c2ccc(-c3ccc(-c4cnc([C@@H]5C=CCN5C(=O)[C@@H](NC(=O)OC)C5CCCC5)[nH]4)cc3)cc2)[nH]1)C(C)C [6dh] | 0.001 to 0.999
COC(=O)N[C@H](C(=O)N1CCC[C@H]1c1ncc(-c2ccc(-c3ccc(-c4cnc([C@@H]5C=CCN5C(=O)[C@@H](NC(=O)OC)C5CCCCC5)[nH]4)cc3)cc2)[nH]1)C(C)C [6di] | 0.001 to 0.999
COC(=O)N[C@H](C(=O)N1CC=C[C@H]1c1ncc(-c2ccc(-c3ccc(-c4cnc([C@@H]5CC(O)CN5C(=O)[C@@H](NC(=O)OC)C(C)C)[nH]4)cc3)cc2)[nH]1)C(C)C (stereo partly shown) [6dq] | 0.001 to 0.999
COC(=O)N[C@H](C(=O)N1CCC[C@H]1c1nc(-c2ccc(-c3ccc(-c4cnc([C@@H]5CC6(CN5C(=O)[C@@H](NC(=O)OC)C(C)C)OCCO6)[nH]4)cc3)cc2)c[nH]1)C(C)C [6ds] | 0.001 to 0.999
COC(=O)N[C@H](C(=O)N1CC=C[C@H]1c1ncc(-c2ccc(-c3ccc4[nH]c([C@@H]5CC6(CC6)CN5C(=O)[C@@H](NC(=O)OC)C(C)C)nc4c3)cc2)[nH]1)C(C)C [6eb] | 0.001 to 0.999
COC(=O)N[C@H](C(=O)N1CN(C(=O)N2Cc3ccc4c(c3C2)OCO4)C[C@H]1c1ncc(-c2ccc(-c3cccc4c(-c5cnc([C@@H]6CCCN6C(=O)[C@@H](NC(=O)OC)C(C)C)[nH]5)cccc34)cc2)[nH]1)C(C)C [6ee] | 0.001 to 0.999
COC(=O)N[C@H](C(=O)N1CC=C[C@H]1c1ncc(-c2ccc(-c3cccc4c(-c5cnc([C@@H]6CCCN6C(=O)[C@@H](NC(=O)OC)C(C)C)[nH]5)cccc34)cc2)[nH]1)C(C)C [6ef] | 0.001 to 0.999
COC(=O)N[C@H](C(=O)N1CC=C[C@H]1c1ncc(-c2cccc3c(-c4ccc(-c5cnc([C@@H]6CCCN6C(=O)[C@@H](NC(=O)OC)C(C)C)[nH]5)cc4)cccc23)[nH]1)C(C)C [6eg] | 0.001 to 0.999
COC(=O)N[C@H](C(=O)N1CC=C[C@H]1c1ncc(-c2ccc3c(c2)OC(c2ccccc2)n2c-3cc3cc(-c4cnc([C@@H]5CCCN5C(=O)[C@@H](NC(=O)OC)C(C)C)[nH]4)ccc32)[nH]1)C(C)C (stereo partly shown) [6ej] | 0.001 to 0.999
COC(=O)N[C@H](C(=O)N1CC=C[C@H]1c1nc2ccc(-c3ccc(-c4ccc5nc([C@@H]6CCCN6C(=O)[C@@H](NC(=O)OC)C(C)C)[nH]c5c4)c4c3CC3(CCCCC3)C4)cc2[nH]1)C(C)C [6en] | 1 to 49.9
COC(=O)N[C@H](C(=O)N1CCC[C@H]1c1nc2ccc(-c3ccc(-c4ccc5nc([C@@H]6C=CCN6C(=O)[C@H](NC(=O)OC)c6ccccc6)[nH]c5c4)c4c3CC3(CCCCC3)C4)cc2[nH]1)C(C)C [6ep] | 1 to 49.9
COC(=O)N[C@H](C(=O)N1CC=C[C@H]1c1ncc(-c2ccc(-c3csc4c(-c5c[nH]c([C@@H]6CCCN6C(=O)[C@@H](NC(=O)OC)C(C)C)n5)csc34)cc2)[nH]1)C(C)C [6fj] | 0.001 to 0.999
COC(=O)N[C@H](C(=O)N1CCC[C@H]1c1nc(-c2csc3c(-c4ccc(-c5cnc([C@@H]6C=CCN6C(=O)[C@H](NC(=O)OC)c6ccccc6)[nH]5)cc4)csc23)c[nH]1)C(C)C [6fk] | 0.001 to 0.999
COC(=O)N[C@H](C(=O)N1CCC[C@H]1c1ncc(-c2cc3oc(-c4ccc(-c5cnc([C@@H]6C=CCN6C(=O)[C@H](NC(=O)OC)c6ccccc6)[nH]5)cc4)cc3s2)[nH]1)C(C)C [6fp] | 0.001 to 0.999
COC(=O)N[C@H](C(=O)N1CC=C[C@H]1c1ncc(-c2ccc(-c3cc4sc(-c5cnc([C@@H]6CCCN6C(=O)[C@H](NC(=O)OC)c6ccccc6)[nH]5)cc4o3)cc2)[nH]1)C(C)C [6fq] | 0.001 to 0.999
COC(=O)N[C@@H](C(=O)N1CC=C[C@H]1c1ncc(-c2ccc(-c3cc4sc(-c5cnc([C@@H]6CCCN6C(=O)[C@H](NC(=O)OC)c6ccccc6)[nH]5)cc4o3)cc2)[nH]1)c1ccccc1 [6fr] | 0.001 to 0.999
COC(=O)N[C@H](C(=O)N1CC=C[C@H]1c1nc(-c2csc3c(-c4ccc(-c5cnc([C@@H]6CCCN6C(=O)[C@H](NC(=O)OC)c6ccccc6)[nH]5)cc4)csc23)c[nH]1)C(C)C [6ft] | 0.001 to 0.999
COC(=O)N[C@H](C(=O)N1CCC[C@H]1c1nc2ccc(-c3csc4c(-c5ccc(-c6cnc([C@@H]7C=CCN7C(=O)[C@H](NC(=O)OC)c7ccccc7)[nH]6)c(F)c5)csc34)cc2[nH]1)C(C)C [6fu] | 0.001 to 0.999
COC(=O)N[C@H](C(=O)N1CCC[C@H]1c1nc2ccc(-c3csc4c(-c5ccc(-c6cnc([C@@H]7C=CCN7C(=O)[C@H](NC(=O)OC)c7ccc(C)cc7)[nH]6)cc5)csc34)cc2[nH]1)C(C)C [6fw] | 0.001 to 0.999
COC(=O)N[C@H](C(=O)N1CC=C[C@H]1c1nc2ccc(-c3csc4c(-c5ccc(-c6cnc([C@@H]7CCCN7C(=O)[C@H](NC(=O)OC)c7ccccc7)[nH]6)cc5)csc34)cc2[nH]1)C(C)C [6fy] | 0.001 to 0.999
COC(=O)N[C@H](C(=O)N1CC=C[C@H]1c1nc2ccc(-c3csc4c(-c5ccc(-c6cnc([C@@H]7CCCN7C(=O)[C@@H](NC(=O)OC)C(C)C)[nH]6)cc5)csc34)cc2[nH]1)C(C)C [6fz] | 0.001 to 0.999
COC(=O)N[C@H](C(=O)N1CCC[C@H]1c1ncc(-c2ccc(-c3csc4c(-c5ccc6nc([C@@H]7C=CCN7C(=O)[C@H](NC(=O)OC)c7ccccc7)[nH]c6c5)csc34)cc2)[nH]1)C(C)C [6ga] | 0.001 to 0.999
COC(=O)N[C@H](C(=O)N1CC=C[C@H]1c1nc2ccc(-c3cc4sc(-c5cnc([C@@H]6CCCN6C(=O)[C@@H](NC(=O)OC)C(C)C)[nH]5)cc4s3)cc2[nH]1)C(C)C [6gh] | 0.001 to 0.999
COC(=O)N[C@H](C(=O)N1CCC[C@H]1c1ncc(-c2csc3c(-c4ccc5nc([C@@H]6C=CCN6C(=O)[C@H](NC(=O)OC)c6ccccc6)[nH]c5c4)csc23)[nH]1)C(C)C [6gj] | 0.001 to 0.999
COC(=O)N[C@@H](C(=O)N1CC=C[C@H]1c1nc2ccc(-c3csc4c(-c5cnc([C@@H]6CCCN6C(=O)[C@H](NC(=O)OC)c6ccccc6)[nH]5)csc34)cc2[nH]1)c1ccccc1 [6gk] | 0.001 to 0.999
COC(=O)N[C@H](C(=O)N1CC=C[C@H]1c1nc2ccc(-c3csc4c(-c5cnc([C@@H]6CCCN6C(=O)[C@@H](NC(=O)OC)C(C)C)[nH]5)csc34)cc2[nH]1)C(C)C [6gm] | 0.001 to 0.999
COC(=O)N[C@H](C(=O)N1CC=C[C@H]1c1nc2ccc(-c3csc4c(-c5cnc([C@@H]6CCCN6C(=O)[C@H](NC(=O)OC)c6ccccc6)[nH]5)csc34)cc2[nH]1)C(C)C [6gn] | 0.001 to 0.999

Same assay, conditions: Hepatitis C virus, genotype 1a / genotype 6a, read-out: Inhibitory activity against various HCV-NS5A subtypes(EC50, GT-1a to GT-6a) GT-1a

SMILES | EC50 [nM]
COC(=O)N[C@H](C(=O)N1CC=C[C@H]1c1nc2ccc(-c3csc4c(-c5ccc(-c6cnc([C@@H]7CCCN7C(=O)[C@@H](NC(=O)OC)C(C)C)[nH]6)cc5)csc34)cc2[nH]1)C(C)C [6fz] | 0.007
COC(=O)N[C@H](C(=O)N1CC=C[C@H]1c1ncc(-c2ccc(-c3csc4c(-c5ccc6nc([C@@H]7CCCN7C(=O)[C@@H](NC(=O)OC)C(C)C)[nH]c6c5)csc34)cc2)[nH]1)C(C)C [6gd] | 0.004

Same assay, conditions: comparison drawn from Table 2

SMILES | inhibitory activity compared with Ref-1(BMS-790052), Ref-2(GS5885), Ref-3 and Ref-4 (in words)
COC(=O)N[C@H](C(=O)N1CC=C[C@H]1c1nc2ccc(-c3csc4c(-c5ccc(-c6cnc([C@@H]7CCCN7C(=O)[C@@H](NC(=O)OC)C(C)C)[nH]6)cc5)csc34)cc2[nH]1)C(C)C [6fz] | significantly superior
COC(=O)N[C@H](C(=O)N1CC=C[C@H]1c1ncc(-c2ccc(-c3csc4c(-c5ccc6nc([C@@H]7CCCN7C(=O)[C@@H](NC(=O)OC)C(C)C)[nH]c6c5)csc34)cc2)[nH]1)C(C)C [6gd] | significantly superior
